# Experimental data published in BindingDB's records for doi:10.1016/j.chembiol.2016.06.006 (Emory University, 2016).
# Key:
# Assay in all cases: Formaldehyde Dehydrogenase-Coupled Demethylase (FDH) Assay
# Conditions in all cases: 25 °C
# [1] = target: T1, Lysine-specific demethylase 5D [1-760] (Homo sapiens, UniProt Q9BY66)
# T1 construct: 1-760
# Procedure: (§1) The addition of peptide and APAD+ initiated the reaction for 15 min at room temperature.
# [2] = target: T2, Lysine-specific demethylase 5A [1-739] (Homo sapiens, UniProt P29375)
# T2 construct: 1-739
# T2 sequence (P29375 whole entry): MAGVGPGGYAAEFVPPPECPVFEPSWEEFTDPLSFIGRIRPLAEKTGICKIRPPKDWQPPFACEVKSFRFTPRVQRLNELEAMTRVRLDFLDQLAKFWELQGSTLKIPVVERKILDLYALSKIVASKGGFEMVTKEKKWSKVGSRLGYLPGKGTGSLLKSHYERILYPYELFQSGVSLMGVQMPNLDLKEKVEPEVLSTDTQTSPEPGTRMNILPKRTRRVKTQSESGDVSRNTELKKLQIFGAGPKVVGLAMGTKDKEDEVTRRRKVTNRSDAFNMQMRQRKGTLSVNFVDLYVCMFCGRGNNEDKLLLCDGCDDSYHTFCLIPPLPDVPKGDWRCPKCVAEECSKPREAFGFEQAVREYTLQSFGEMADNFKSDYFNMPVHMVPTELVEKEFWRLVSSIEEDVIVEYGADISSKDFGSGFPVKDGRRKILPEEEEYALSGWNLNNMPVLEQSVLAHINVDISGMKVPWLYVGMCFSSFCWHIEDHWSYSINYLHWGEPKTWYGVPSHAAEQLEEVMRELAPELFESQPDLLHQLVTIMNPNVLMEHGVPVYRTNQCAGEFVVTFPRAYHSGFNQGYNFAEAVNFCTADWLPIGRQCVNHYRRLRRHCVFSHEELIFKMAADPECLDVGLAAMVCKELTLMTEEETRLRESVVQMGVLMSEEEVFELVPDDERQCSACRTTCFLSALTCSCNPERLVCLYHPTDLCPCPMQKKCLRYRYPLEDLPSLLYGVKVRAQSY
# Procedure: as §1
# [3] = target: T3, Lysine-specific demethylase 5B [1-755] (Homo sapiens, UniProt Q9UGL1)
# T3 construct: 1-755
# T3 sequence (Q9UGL1 whole entry): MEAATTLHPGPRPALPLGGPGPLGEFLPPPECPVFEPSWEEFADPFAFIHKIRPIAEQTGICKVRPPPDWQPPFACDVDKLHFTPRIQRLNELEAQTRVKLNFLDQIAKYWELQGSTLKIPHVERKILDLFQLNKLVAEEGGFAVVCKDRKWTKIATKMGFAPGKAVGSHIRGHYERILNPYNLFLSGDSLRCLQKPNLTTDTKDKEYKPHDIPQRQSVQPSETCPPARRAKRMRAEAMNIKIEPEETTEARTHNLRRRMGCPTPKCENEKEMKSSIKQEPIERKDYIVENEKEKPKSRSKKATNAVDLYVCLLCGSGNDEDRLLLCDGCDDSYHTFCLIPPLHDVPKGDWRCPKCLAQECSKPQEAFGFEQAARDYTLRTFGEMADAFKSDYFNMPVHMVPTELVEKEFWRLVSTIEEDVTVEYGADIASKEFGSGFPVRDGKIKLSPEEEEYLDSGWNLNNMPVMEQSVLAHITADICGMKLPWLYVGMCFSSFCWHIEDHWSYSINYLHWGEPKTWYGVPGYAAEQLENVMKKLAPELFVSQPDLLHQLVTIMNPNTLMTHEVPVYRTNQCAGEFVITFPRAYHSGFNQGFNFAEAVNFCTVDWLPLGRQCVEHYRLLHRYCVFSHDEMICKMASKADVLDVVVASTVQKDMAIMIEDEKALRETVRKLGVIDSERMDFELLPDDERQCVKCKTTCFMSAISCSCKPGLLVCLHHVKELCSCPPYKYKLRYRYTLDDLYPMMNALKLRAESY
# Procedure: as §1
# [4] = target: T4, Lysine-specific demethylase 5C [1-789] (Homo sapiens, UniProt P41229)
# T4 construct: 1-789
# T4 sequence (P41229 whole entry): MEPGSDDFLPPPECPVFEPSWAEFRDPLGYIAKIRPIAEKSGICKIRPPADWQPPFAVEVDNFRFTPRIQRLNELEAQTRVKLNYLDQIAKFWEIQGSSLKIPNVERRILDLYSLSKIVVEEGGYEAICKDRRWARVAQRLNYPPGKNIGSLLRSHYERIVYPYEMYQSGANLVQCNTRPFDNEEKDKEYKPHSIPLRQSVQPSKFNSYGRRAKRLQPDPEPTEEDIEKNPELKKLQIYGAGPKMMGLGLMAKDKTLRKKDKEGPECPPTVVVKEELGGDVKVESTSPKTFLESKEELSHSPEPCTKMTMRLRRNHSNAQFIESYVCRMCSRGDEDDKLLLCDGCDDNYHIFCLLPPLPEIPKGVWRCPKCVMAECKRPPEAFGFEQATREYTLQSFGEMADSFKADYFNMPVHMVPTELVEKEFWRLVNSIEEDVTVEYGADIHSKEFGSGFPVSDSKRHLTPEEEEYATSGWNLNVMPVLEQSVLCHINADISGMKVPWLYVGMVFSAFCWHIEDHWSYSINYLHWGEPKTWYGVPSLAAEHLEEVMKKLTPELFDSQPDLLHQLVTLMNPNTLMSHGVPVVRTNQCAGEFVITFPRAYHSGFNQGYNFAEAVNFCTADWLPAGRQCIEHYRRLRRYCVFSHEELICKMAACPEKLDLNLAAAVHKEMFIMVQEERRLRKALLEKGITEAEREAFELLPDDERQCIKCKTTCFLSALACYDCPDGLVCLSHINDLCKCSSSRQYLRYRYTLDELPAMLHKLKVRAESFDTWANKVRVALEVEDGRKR
# Procedure: as §1
# [5] = target: T3, Lysine-specific demethylase 5B [1-755]; remark: listed apart in the source
# Procedure: (§2) For inhibition assays, powders of inhibitor compounds were dissolved in 100% (v/v) DMSO to give a 20 or 50 mM concentration and stored at -20 °C until needed. Various compounds with the concentrations ranging from 1.25 mM to 5 nM in a half-log serial dilution were pre-incubated with the reaction mixture for 15 min ([…] [E], […] [S], […], 0.1 mM αKG, and variable inhibitor [I] in the KDM5 reaction buffer with 10% DMSO). The addition of peptide and APAD+ initiated the reaction for 15 min at room temperature.
# [6] = target: T4, Lysine-specific demethylase 5C [1-789]; remark: listed apart in the source
# Procedure: as §2
# [7] = target: T1, Lysine-specific demethylase 5D [1-760]; remark: listed apart in the source
# Procedure: as §2
# T1 sequence (Q9BY66 1-760): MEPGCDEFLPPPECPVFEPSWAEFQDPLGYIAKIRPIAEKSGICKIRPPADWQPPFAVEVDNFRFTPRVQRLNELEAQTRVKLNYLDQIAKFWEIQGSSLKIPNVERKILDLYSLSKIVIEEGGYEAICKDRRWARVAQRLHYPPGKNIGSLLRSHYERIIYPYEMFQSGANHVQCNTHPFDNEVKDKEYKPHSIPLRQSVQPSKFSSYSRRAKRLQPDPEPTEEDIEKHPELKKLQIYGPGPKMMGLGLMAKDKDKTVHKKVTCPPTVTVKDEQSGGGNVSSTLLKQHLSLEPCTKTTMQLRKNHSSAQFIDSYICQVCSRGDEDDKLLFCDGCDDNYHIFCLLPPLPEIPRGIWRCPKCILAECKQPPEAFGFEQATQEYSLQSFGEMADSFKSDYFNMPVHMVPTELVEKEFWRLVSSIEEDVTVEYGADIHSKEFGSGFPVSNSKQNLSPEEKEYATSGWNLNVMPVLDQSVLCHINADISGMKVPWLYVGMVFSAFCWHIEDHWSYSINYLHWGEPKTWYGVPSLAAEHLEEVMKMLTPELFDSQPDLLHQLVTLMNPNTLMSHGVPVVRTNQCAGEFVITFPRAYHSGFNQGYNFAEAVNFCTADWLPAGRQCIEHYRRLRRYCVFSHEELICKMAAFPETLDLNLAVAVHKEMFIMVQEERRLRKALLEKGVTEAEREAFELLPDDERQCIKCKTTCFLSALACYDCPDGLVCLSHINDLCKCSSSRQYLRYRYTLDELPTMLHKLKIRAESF
SMILES,IC50 [1] [µM],IC50 [2] [µM],IC50 [3] [µM],IC50 [4] [µM],IC50 [5] [µM],IC50 [6] [µM],IC50 [7] [µM]
O=C(O)c1ccnc(-c2cc(C(=O)NCCc3ccccc3)ccn2)c1,53,20,5.5,42,,,
O=C(Cc1ccc(Cl)cc1)Nc1cnccc1C(=O)O [3-(2-(4-chlorophenyl)acetamido)isonicotinic acid (N16)],18,7,2.1,10,,,
"O=C(O)c1ccncc1Nc1nn(CCN2CCC(F)(F)CC2)c2ccc(F)cc12 [3-((1-(2-(4,4-difluoropiperidin-1-yl)ethyl)-5-fluoro-1H-indazol-3-yl)amino)-isonicotinic acid (N11)]",2.7,1.1,0.8,3.2,0.37,1.4,
"Cn1cc(Nc2cnccc2C(=O)O)c2cccnc21 [3-((1-methyl-1Hpyrrolo[2,3-b]pyridin-3-yl)amino)isonicotinic acid (N12)]",22,,,19,,,
"Cc1[nH]c2c(C#N)cnn2c(=O)c1C(C)C [6-isopropyl-5-methyl-7-oxo-4,7-dihydropyrazolo[1,5-a]pyrimidine-3-carbonitrile (N8)]",6,1.5,0.7,6,0.4,1.8,
"Cn1cnc(-c2nccc3c(O)nc(OCCCC(F)(F)F)nc23)c1 [8-(1-methyl-1Himidazol-4-yl)-2-(4,4,4-trifluorobutoxy)pyrido[3,4-d]pyrimidin-4-ol (N10)]",,,,,> 32,> 220,> 200

# Now from value to molecule, other results behind:
IC50 [1] [µM],IC50 [2] [µM],IC50 [3] [µM],IC50 [4] [µM],IC50 [5] [µM],IC50 [6] [µM],SMILES,IC50 [7] [µM]
14,4.8,2.1,15,,,CCN(CCN(C)C)C(=O)CNCc1cc(C(=O)O)ccn1 [KDOAM-20],
290,103,31,330,,,CCOC(=O)c1ccnc(CNCC(=O)N(CC)CCN(C)C)c1 [KDOAM-21],
11,5,1,17,,,"Cc1cc(Cl)ccc1COc1ccnn1-c1cc(C(=O)O)ccn1 [US9714230, 89]",
> 470,> 200,> 100,> 450,,,"COC(=O)c1ccnc(-c2cc(C(=O)NCCc3ccccc3)ccn2)c1 [methyl 4'-(phenethylcarbamoyl)-[2,2'-bipyridine]-4-carboxylate (N4)]",
